Test system: Friend Leukämie Virus
Assay: FLV model of the mouse (Friend leukaemia virus infection, relative spleen weight)
Assay type: in vivo
Settings: i.p.; for rel.Milzgewicht in % Körpergew.: start 2 days after infection, spleen 14 days after infection
Source text: Da für die HIV-Infektion des Menschen kein überzeugendes Infektionsmodell bei Labortieren existiert, muß bei der Prüfung von Chemotherapeutika auf Infektionen mit anderen Retroviren zurückgegriffen werden. Im vorliegenden Falle wurde die Infektion der Maus mit dem Friend Leukämie Virus gewählt.
Normale Labormäuse (NMRI = Naval Medical Research Institute) wurden durch intravenöse Injektion mit Friend-Virus enthaltendem Mäuseserum infiziert. Bei den unbehandelten Kontrolltieren entwickelt sich als Symptom der Infektion innerhalb von 2 Wochen bzw. 3 Wochen eine deutliche Vergrößerung von Milz und Leber. Die Behandlung erfolgt über 10 Tage bei intraperitonealer Applikation und über 16 Tage bei oraler Applikation der Testsubstanzen. Bei intraperitonealer Gabe der Testsubstanzen beginnt die Behandlung 48 Stunden nach der Infektion, bei peroraler Gabe der Testsubstanz 4 Tage vor der Infektion. Am 14. Tag nach Infektion werden die Tiere durch Luxation der Halswirbel getötet und geöffnet. Die Milz wird entnommen und gewogen. Als Meßparameter der therapeutischen Wirksamkeit wird das Milzgewicht der behandelten Tiere mit den der unbehandelten Infektionskontrolle in Relation gesetzt.
Für die orale Applikation werden die Prüfsubstanzen in Trinkwasser gelöst. Alle 24 Stunden werden die Trinkwasserbehälter mit jeweils 100 ml Inhalt gewechselt. Aus dem täglich ermittelten Verbrauch an Trinkwasser pro Versuchskollektiv wird die durchschnittliche Dosismenge errechnet, die einer Maus pro 24 Stunden appliziert wurde.
Während bei uninfizierten, ausgewachsenen Labormäusen (20 - 24 g Körpergewicht) die Milz weniger als 1 % des Körpergewichtes wiegt, erreicht bei infizierten Tieren die Milz am Ende des Versuchs etwa bis zu 10 % des Körpergewichtes.
Als Vergleichspräparate dienen Suramin (= 3,3′-Ureylen-bis-(8-(3-benzamido-4-methylbenzamido)-naphthalin-1,3,5-trisulfonsäure|) bei intraperitonealer Gabe bzw. Pentosanpolysulfat bei intraperitonealer und oraler Gabe.

Structure (SMILES): Cc1ccc(C(=O)Nc2ccc(S(=O)(=O)O)c3cc(S(=O)(=O)O)cc(S(=O)(=O)O)c23)cc1NC(=O)c1cccc(NC(=O)Nc2cccc(C(=O)Nc3cc(C(=O)Nc4ccc(S(=O)(=O)O)c5cc(S(=O)(=O)O)cc(S(=O)(=O)O)c45)ccc3C)c2)c1 [Suramin, 3,3′-Ureylen-bis-(8-(3-benzamido-4-methylbenzamido)-naphthalin-1,3,5-trisulfonsäure|)]
- rel.Milzgewicht in % Körpergew. (10 x 0,1 mg/Maus, second series (Kontrolle 7,25)): 5,68 % Körpergew.
- Anzahl überlebender Mäuse n (10 x 0,1 mg/Maus, second series (Kontrolle 10)): 10
- rel.Milzgewicht in % Körpergew. (10 x 1,0 mg/Maus, first series (Kontrolle 6,41)): 4,96 % Körpergew.
- Anzahl überlebender Mäuse n (10 x 1,0 mg/Maus, first series (Kontrolle 10)): 10

From patent EP0406685A1, “Substituted polysaccharides, method for their preparation as well as their use in prophylaxis and treatment of viral diseases” (HOECHST AKTIENGESELLSCHAFT, priority 1989, dated 1991)
